Source: US20260049088A1, “TRICYCLIC HETEROCYCLIC DERIVATIVES, COMPOSITIONS AND USES THEREOF” (Danatlas Pharmaceuticals Co., Ltd., priority 2023, published 2026)

Target: T1, hPARG (Homo sapiens, UniProt Q86W56)
T1 construct: made in house; host or cells: E. coli
Assay: PARG enzymatic activity assay (HTRF)
Format: biochemical
Conditions: C-terminal His6-tag hPARG 65 pM, biotinylated-NAD ribosylated PARP1 substrate 8 nM
Protocol: HTRF assay was used to measure the ability of compounds to inhibit the activity of […] in vitro. C-terminal His6—tag PARG expressed in E. coli was purified and stored at −80° C. in aliquots. Assay measurements were performed with 1×buffer comprising 50 mM Tris pH 7.4, 0.1 mg/mL BSA, 3 mM EDTA, 0.4 mM EGTA, 1 mM DTT, 50 mM KCl and 0.01% Tween 20. Compounds dissolved in DMSO were plated into a 384-well assay plate (PerkinElmer, Catalog #: 6008280) in duplicate using a dispenser (Labcyte, Echo 665), and tested on a 10-point 4-fold serial dilution. Add 5 μL Enzyme mix [hPARG (C-terminal His6—tag, 4.2 μM), 65 pM final] to the test wells. The plates were covered and left to incubate for 60 minutes at RT before the addition of 5 μL substrate mix [biotinylated-NAD ribosylated PARP1 (6.1 μM), 8 nM final] to initiate reaction. After incubating 10 minutes at RT, add 2.5 μL Streptavidin-Eu cryptate (Cisbio, Catalog #: 610SAKLA) and 2.5 μL Mab anti 6HIS-XL665 (Cisbio, Catalog #: 61HISXLA) to the plate, and incubate for 60 minutes at RT. Read on a multimode plate reader (PerkinElmer, Envision 2015) in time-resolved fluorescence (TRF) mode, with excitation at 337 nm and emission at both 620 nm and 665 nm. Average HTRF signal of high control (Wells with 1% DMSO) was calculated and as Vehicle Control (VC). Average HTRF signal of low control (no Enzyme) was calculated and as Positive control (PC).
IC50 values were determined by fitting the data to the standard 4 parameters with Hill Slope using GraphPad Prism software.

T1 sequence (Q86W56 whole entry): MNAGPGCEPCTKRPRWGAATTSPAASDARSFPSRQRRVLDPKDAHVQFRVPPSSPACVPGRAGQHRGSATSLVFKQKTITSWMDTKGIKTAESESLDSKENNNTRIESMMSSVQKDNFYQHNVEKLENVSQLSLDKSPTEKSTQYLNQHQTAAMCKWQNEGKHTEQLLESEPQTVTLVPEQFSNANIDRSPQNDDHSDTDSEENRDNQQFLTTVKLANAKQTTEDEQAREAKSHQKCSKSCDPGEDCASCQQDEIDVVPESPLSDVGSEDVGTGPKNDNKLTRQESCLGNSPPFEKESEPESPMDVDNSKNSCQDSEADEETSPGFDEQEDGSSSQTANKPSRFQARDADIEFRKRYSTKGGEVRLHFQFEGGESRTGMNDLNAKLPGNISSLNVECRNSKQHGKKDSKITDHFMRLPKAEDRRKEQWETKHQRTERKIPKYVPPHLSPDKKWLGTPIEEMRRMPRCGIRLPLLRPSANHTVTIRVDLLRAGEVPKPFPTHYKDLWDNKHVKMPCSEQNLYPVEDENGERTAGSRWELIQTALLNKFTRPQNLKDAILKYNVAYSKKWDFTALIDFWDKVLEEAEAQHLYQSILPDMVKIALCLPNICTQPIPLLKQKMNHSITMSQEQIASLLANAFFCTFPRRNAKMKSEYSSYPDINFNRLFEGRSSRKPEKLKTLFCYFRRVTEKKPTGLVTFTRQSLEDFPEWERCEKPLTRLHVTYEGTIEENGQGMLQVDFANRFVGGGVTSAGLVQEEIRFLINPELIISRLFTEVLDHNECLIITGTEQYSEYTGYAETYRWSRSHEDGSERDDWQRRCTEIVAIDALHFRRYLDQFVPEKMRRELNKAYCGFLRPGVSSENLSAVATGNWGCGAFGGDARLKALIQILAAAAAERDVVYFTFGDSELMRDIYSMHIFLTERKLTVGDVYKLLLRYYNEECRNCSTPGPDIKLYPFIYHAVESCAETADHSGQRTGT

| Compound | IC50 [nM] |
| --- | --- |
| CN1CC2CN(c3ncnc4c3c3ccc(S(=O)(=O)NC5(C#N)CC5)cc3n4-c3nnc(C(F)F)s3)CC2C1 (stereo not shown) [Example 29, N-(1-Cyanocyclopropyl)-9-(5-(difluoromethyl)-1,3,4-thiadiazol-2-yl)-4-(5-methylhexahydropyrrolo[3,4-c]pyrrol-2(1H)-yl)-9H-pyrimido[4,5-b]indole-7-sulfonamide] | ≤ 100 |
| CN(C)c1ncnc2c1c1ccc(S(=O)(=O)NC3(C#N)CC3)cc1n2-c1nnc(C(F)F)s1 [Example 14, N-(1-Cyanocyclopropyl)-9-(5-(difluoromethyl)-1,3,4-thiadiazol-2-yl)-4-(dimethylamino)-9H-pyrimido[4,5-b]indole-7-sulfonamide] | ≤ 100 |
| CC(C)(O)CCc1ncnc2c1c1ccc(S(=O)(=O)NC3(C#N)CC3)cc1n2-c1nnc(C(F)F)s1 [Example 89, N-(1-Cyanocyclopropyl)-9-(5-(difluoromethyl)-1,3,4-thiadiazol-2-yl)-4-(3-hydroxy-3-methylbutyl)-9H-pyrimido[4,5-b]indole-7-sulfonamide] | 100 to 1000 |
| CN1C[C@@H]2C[C@H]1CN2c1ncnc2c1c1ccc(S(=O)(=O)NC3(C#N)CC3)cc1n2-c1nnc(C(F)F)s1 [Example 31, N-(1-Cyanocyclopropyl)-9-(5-(difluoromethyl)-1,3,4-thiadiazol-2-yl)-4-((1S,4S)-5-methyl-2,5-diazabicyclo[2.2.1]heptan-2-yl)-9H-pyrimido[4,5-b]indole-7-sulfonamide] | ≤ 100 |
| CN(CCO)c1ncnc2c1c1ccc(S(=O)(=O)NC3(C#N)CC3)cc1n2-c1nnc(C(F)F)s1 [Example 63, N-(1-Cyanocyclopropyl)-9-(5-(difluoromethyl)-1,3,4-thiadiazol-2-yl)-4-((2-hydroxyethyl)(methyl)amino)-9H-pyrimido[4,5-b]indole-7-sulfonamide] | ≤ 100 |
| CN(CC(=O)N1CCOCC1)c1ncnc2c1c1ccc(S(=O)(=O)NC3(C#N)CC3)cc1n2-c1nnc(C(F)F)s1 [Example 20, N-(1-Cyanocyclopropyl)-9-(5-(difluoromethyl)-1,3,4-thiadiazol-2-yl)-4-(methyl(2-morpholino-2-oxoethyl)amino)-9H-pyrimido[4,5-b]indole-7-sulfonamide] | ≤ 100 |
| N#CC1(NS(=O)(=O)c2ccc3c4c(NC(=O)CN5CCOCC5)ncnc4n(-c4nnc(C(F)F)s4)c3c2)CC1 [Example 82, N-(7-(N-(1-Cyanocyclopropyl)sulfamoyl)-9-(5-(difluoromethyl)-1,3,4-thiadiazol-2-yl)-9H-pyrimido[4,5-b]indol-4-yl)-2-morpholinoacetamide] | ≤ 100 |
| N#CC1(NS(=O)(=O)c2ccc3c4c(NCCN5CCOCC5)ncnc4n(-c4nnc(C(F)F)s4)c3c2)CC1 [Example 16, N-(1-Cyanocyclopropyl)-9-(5-(difluoromethyl)-1,3,4-thiadiazol-2-yl)-4-((2-morpholinoethyl)amino)-9H-pyrimido[4,5-b]indole-7-sulfonamide] | ≤ 100 |
| CN(C[C@H]1COCCN1C)c1ncnc2c1c1ccc(S(=O)(=O)NC3(C#N)CC3)cc1n2-c1nnc(C(F)F)s1 [Example 66, (S)-N-(1-Cyanocyclopropyl)-9-(5-(difluoromethyl)-1,3,4-thiadiazol-2-yl)-4-(methyl((4-methylmorpholin-3-yl)methyl)amino)-9H-pyrimido[4,5-b]indole-7-sulfonamide] | ≤ 100 |
| CN1CCOCC1COc1ncnc2c1c1ccc(S(=O)(=O)NC3(C#N)CC3)cc1n2-c1nnc(C(F)F)s1 (stereo not shown) [Example 90, N-(1-Cyanocyclopropyl)-9-(5-(difluoromethyl)-1,3,4-thiadiazol-2-yl)-4-((4-methylmorpholin-3-yl)methoxy)-9H-pyrimido[4,5-b]indole-7-sulfonamide] | 100 to 1000 |

Other lines, results leading:

| IC50 [nM] | Compound |
| --- | --- |
| ≤ 100 | N#CC1(NS(=O)(=O)c2ccc3c4c(/C=C/CN5CCOCC5)ncnc4n(-c4nnc(C(F)F)s4)c3c2)CC1 [Example 85, (E)-N-(1-Cyanocyclopropyl)-9-(5-(difluoromethyl)-1,3,4-thiadiazol-2-yl)-4-(3-morpholinoprop-1-en-1-yl)-9H-pyrimido[4,5-b]indole-7-sulfonamide] |
| ≤ 100 | N#CC1(NS(=O)(=O)c2ccc3c4c(N5CCn6ncnc6C5)ncnc4n(-c4nnc(C(F)F)s4)c3c2)CC1 [Example 49, N-(1-Cyanocyclopropyl)-9-(5-(difluoromethyl)-1,3,4-thiadiazol-2-yl)-4-(5,6-dihydro-[1,2,4]triazolo[1,5-a]pyrazin-7(8H)-yl)-9H-pyrimido[4,5-b]indole-7-sulfonamide] |
| ≤ 100 | CN(CC(=O)O)c1ncnc2c1c1ccc(S(=O)(=O)NC3(C#N)CC3)cc1n2-c1nnc(C(F)F)s1 [Example 19, N-(7-(N-(1-Cyanocyclopropyl)sulfamoyl)-9-(5-(difluoromethyl)-1,3,4-thiadiazol-2-yl)-9H-pyrimido[4,5-b]indol-4-yl)-N-methylglycine] |
| ≤ 100 | N#CC1(NS(=O)(=O)c2ccc3c4c(OCCN5CCOCC5)ncnc4n(-c4nnc(C(F)F)s4)c3c2)CC1 [Example 1, N-(1-Cyanocyclopropyl)-9-(5-(difluoromethyl)-1,3,4-thiadiazol-2-yl)-4-(2-morpholinoethoxy)-9H-pyrimido[4,5-b]indole-7-sulfonamide] |
| ≤ 100 | CN(C)[C@H]1CCCC[C@@H]1N(C)c1ncnc2c1c1ccc(S(=O)(=O)NC3(C#N)CC3)cc1n2-c1nnc(C(F)F)s1 [Example 74, N-(1-Cyanocyclopropyl)-9-(5-(difluoromethyl)-1,3,4-thiadiazol-2-yl)-4-(((1S,2S)-2-(dimethylamino)cyclohexyl)(methyl)amino)-9H-pyrimido[4,5-b]indole-7-sulfonamide] |
| ≤ 100 | CN(CC1CCCOC1)c1ncnc2c1c1ccc(S(=O)(=O)NC3(C#N)CC3)cc1n2-c1nnc(C(F)F)s1 (stereo not shown) [Example 68, N-(1-Cyanocyclopropyl)-9-(5-(difluoromethyl)-1,3,4-thiadiazol-2-yl)-4-(methyl((tetrahydro-2H-pyran-3-yl)methyl)amino)-9H-pyrimido[4,5-b]indole-7-sulfonamide] |
| ≤ 100 | CCN(CC)C1C[C@H]2C[C@@H]1CN2c1ncnc2c1c1ccc(S(=O)(=O)NC3(C#N)CC3)cc1n2-c1nnc(C(F)F)s1 (stereo partly drawn) [Example 39, N-(1-Cyanocyclopropyl)-4-((1R,4R)-5-(diethylamino)-2-azabicyclo[2.2.1]heptan-2-yl)-9-(5-(difluoromethyl)-1,3,4-thiadiazol-2-yl)-9H-pyrimido[4,5-b]indole-7-sulfonamide] |
| ≤ 100 | CC(C)(O)C#Cc1ncnc2c1c1ccc(S(=O)(=O)NC3(C#N)CC3)cc1n2-c1nnc(C(F)F)s1 [Example 88, N-(1-Cyanocyclopropyl)-9-(5-(difluoromethyl)-1,3,4-thiadiazol-2-yl)-4-(3-hydroxy-3-methylbut-1-yn-1-yl)-9H-pyrimido[4,5-b]indole-7-sulfonamide] |
| ≤ 100 | CCN(CCN1CCOCC1)c1ncnc2c1c1ccc(S(=O)(=O)NC3(C#N)CC3)cc1n2-c1nnc(C(F)F)s1 [Example 18, N-(1-Cyanocyclopropyl)-9-(5-(difluoromethyl)-1,3,4-thiadiazol-2-yl)-4-(ethyl(2-morpholinoethyl)amino)-9H-pyrimido [4,5-b]indole-7-sulfonamide] |
